{
  "source": "patent US20120121745A1",
  "about": "“AGENTS FOR THE CONTROL OF […]” (MARRONE BIO INNOVATIONS, INC., priority 2010, published 2012)",
  "tested_on": "quagga mussels",
  "assay": "Molluscicidal effects of compounds isolated from Pseudomonas broth (live mussel jar-test bioassay, procedures of US 20100266717)",
  "type": "in vivo",
  "conditions": "Conc 16 μg/ml",
  "experimental": "The culture broth derived from the 10-L fermentation P. fluorescens in FM2-growth media is first centrifuge to separate the cells pellet and supernatant. The supernatant and the cell pellet were extracted separately using Amberlite XAD-7 resin (Asolkar et al., 2006) by shaking the cell suspension/supernatant with resin at 225 rpm for two hours at room temperature. The resin and cell mass are collected by filtration through cheesecloth and washed with DI water to remove salts. The resin, cell mass, and cheesecloth are then soaked for 2 h in acetone/methanol (50/50) after which the acetone/methanol is filtered and dried under vacuum using rotary evaporator to give two separate crude extract.(one for supernatant and other for cell pellets). The crude extracts were then fractionated separately by using reversed-phase C18 vacuum liquid chromatography (H2O/CH3OH; gradient […] to 0:100%) to give 7 fractions. These fractions are then concentrated to dryness using rotary evaporator and the resulting dry residues are screened for biological activity using both a live mussel jar-test bioassay with quagga mussels as well as a cell-based assay with a freshwater snail embryo cell line (Biomphalaria glabrata). The active fractions are then subjected to reversed phase HPLC (Spectra System P4000 (Thermo Scientific) to give pure compounds, which are then screened in above mentioned bioassays to locate/identify the active compounds. To confirm the identity of the compound, additional spectroscopic data such as LC/MS and NMR is recorded.\nThe potency of compounds isolated from Pseudomonas broth is tested using procedures described in the US Patent Application Pub. No. 20100266717.",
  "data": [
    {"molecule": "CCCCCC[C@@H](O)C/C=C\\CCCCCCCC(=O)O", "note": "[Ricinoleic acid, ricinoleic acid]", "values": [
      {"measurement": "% mortality 24 hr", "value": "20 ± 0", "unit": "%"},
      {"measurement": "% mortality 48 hr", "value": "20 ± 0", "unit": "%"},
      {"measurement": "% mortality 72 hr", "value": "20 ± 0", "unit": "%"},
      {"measurement": "% mortality 96 hr", "value": "20 ± 0", "unit": "%"}
    ]},
    {"molecule": "CCCCCC/C=C/CCCCCCCC(=O)O", "note": "[9-hexadecenoic acid]", "values": [
      {"measurement": "% mortality 24 hr", "value": "20 ± 14.1", "unit": "%"},
      {"measurement": "% mortality 48 hr", "value": "25.5 ± 7.1", "unit": "%"},
      {"measurement": "% mortality 72 hr", "value": "30 ± 14.1", "unit": "%"},
      {"measurement": "% mortality 96 hr", "value": "30 ± 14.1", "unit": "%"}
    ]}
  ]
}
